Measured values: patent publication US6706721B1, “N-(3-ethynylphenylamino)-6,7-bis(2-methoxyethoxy)-4-quinazolinamine mesylate anhydrate and monohydrate” (OSI Pharmaceuticals, Inc., priority 1998, dated 2004)

What was measured:
[1] = resistance to thermal degradation; assay type: physicochemical
[2] = hygroscopicity; assay type: physicochemical

- thermal degradation [1]: resistance to thermal degradation
- hygroscopicity [2]: essentially non-hygroscopic
SMILES: C#Cc1cccc(Nc2ncnc3cc(OCCOC)c(OCCOC)cc23)c1.CS(=O)(=O)O [Polymorph C, N-(3-ethynylphenyl)-6,7-bis(2-methoxyethoxy)-4-quinazolinamine Mesylate Salt]
